From patent publication US8445501B2, “Substituted 7-carboxamido-pyrrolo[3,2-d]pyrimidines” (Takeda GmbH, priority 2008, dated 2013) come the findings set out here.

The target of the assay is T1, human PDE5 (Homo sapiens, UniProt O76074).
T1 construct: from tissue; host or cells: platelets from fresh blood of human donors (lysate, 10,000 g supernatant)
Kind of assay: Inhibition of the type 5 phosphodiesterase (PDE5) activity, modified SPA test with platelet lysate. The note with it: PDE5 from human platelet lysate, 0.5 μM cGMP. The assay is classed as biochemical. A digest of the protocol:
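SPA-based cGMP hydrolysis, [3H]cGMP tracer in 0.5 μM cGMP, by sonicated human platelet lysate; motapizone (1 μM) and a PDE2 inhibitor (10 nM) block other PDEs. Reaction 15 min at 37 °C after 5 min preincubation, quenched with beads containing IBMX. IC50 from concentration-effect curves.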
Usually IC50 stands for the concentration that gives 50% inhibition. A higher IC50 goes with weaker potency. As to `CCOC(=O)N1CC[C@@H](NC(=O)c2c[nH]c3c(-c4c(OCC)ccc5c4OCO5)ncnc23)C1` [Example 137, (R)-3-{[4-(5-Ethoxy-benzo[1,3]dioxol-4-yl)-5H-pyrrolo[3,2-d]pyrimidine-7-carbonyl]-amino}-pyrrolidine-1-carboxylic acid ethyl ester], 2.24 nM corresponded to half-maximal inhibition (IC50).
To `CCOc1ccc2c(c1-c1ncnc3c(C(=O)N[C@@H]4CCN(C(=O)COC)C4)c[nH]c13)OCO2` [Example 138] belongs 6.03 nM; to `CCCOc1ccc2c(c1-c1ncnc3c(C(=O)NC4CCN(C(=O)CC)CC4)c[nH]c13)OCO2` [Example 139, 4-(5-Propoxy-benzo[1,3]dioxol-4-yl)-5H-pyrrolo[3,2-d]pyrimidine-7-carboxylic acid (1-propionyl-piperidin-4-yl)-amide], 0.204 nM.
To `CCCOc1ccc2c(c1-c1ncnc3c(C(=O)NC4CCN(C(=O)OCC)CC4)c[nH]c13)OCO2` [Example 140, 4-{[4-(5-Propoxy-benzo[1,3]dioxol-4-yl)-5H-pyrrolo[3,2-d]pyrimidine-7-carbonyl]-amino}-piperidine-1-carboxylic acid ethyl ester] belongs 0.148 nM; to `CCCOc1ccc2c(c1-c1ncnc3c(C(=O)N[C@@H]4CCN(C(=O)CC)C4)c[nH]c13)OCO2` [Example 141, 4-(5-Propoxy-benzo[1,3]dioxol-4-yl)-5H-pyrrolo[3,2-d]pyrimidine-7-carboxylic acid ((R)-1-propionyl-pyrrolidin-3-yl)-amide], 0.933 nM.
Under `CCCOc1ccc2c(c1-c1ncnc3c(C(=O)N[C@@H]4CCN(C(=O)OCC)C4)c[nH]c13)OCO2` [Example 142, (R)-3-{[4-(5-Propoxy-benzo[1,3]dioxol-4-yl)-5H-pyrrolo[3,2-d]pyrimidine-7-carbonyl]amino}-pyrrolidine-1-carboxylic acid ethyl ester] stands 0.617 nM; under `CCCOc1ccc2c(c1-c1ncnc3c(C(=O)N[C@@H]4CCN(C(=O)COC)C4)c[nH]c13)OCO2` [Example 143, 4-(5-Propoxy-benzo[1,3]dioxol-4-yl)-5H-pyrrolo[3,2-d]pyrimidine-7-carboxylic acid [(R)-1-(2-methoxy-acetyl)-pyrrolidin-3-yl]amide], 1.51 nM; under `CCCCOc1ccc2c(c1-c1ncnc3c(C(=O)NC4CCN(C(=O)CC)CC4)c[nH]c13)OCO2` [Example 144, 4-(5-Butoxy-benzo[1,3]dioxol-4-yl)-5H-pyrrolo[3,2-d]pyrimidine-7-carboxylic acid (1-propionyl-piperidin-4-yl)-amide], 0.115 nM.
Compound `CCCCOc1ccc2c(c1-c1ncnc3c(C(=O)NC4CCN(C(=O)OCC)CC4)c[nH]c13)OCO2` [Example 145, 4-{[4-(5-Butoxy-benzo[1,3]dioxol-4-yl)-5H-pyrrolo[3,2-d]pyrimidine-7-carbonyl]-amino}-piperidine-1-carboxylic acid ethyl ester] had an IC50 of 0.1 nM.
To `CCCCOc1ccc2c(c1-c1ncnc3c(C(=O)NC4CCN(C=O)CC4)c[nH]c13)OCO2` [Example 146, 4-(5-Butoxy-benzo[1,3]dioxol-4-yl)-5H-pyrrolo[3,2-d]pyrimidine-7-carboxylic acid (1-formyl-piperidin-4-yl)-amide] belongs 0.229 nM; to `CCCCOc1ccc2c(c1-c1ncnc3c(C(=O)NC4CCCN(C(=O)CC)C4)c[nH]c13)OCO2` (stereo not shown) [Example 147, 4-(5-Butoxy-benzo[1,3]dioxol-4-yl)-5H-pyrrolo[3,2-d]pyrimidine-7-carboxylic acid (1-propionyl-piperidin-3-yl)-amide], 0.24 nM.
In the case of `CCCCOc1ccc2c(c1-c1ncnc3c(C(=O)NC4CCCN(C(=O)OCC)C4)c[nH]c13)OCO2` (stereo not shown) [Example 148, 3-{[4-(5-Butoxy-benzo[1,3]dioxol-4-yl)-5H-pyrrolo[3,2-d]pyrimidine-7-carbonyl]-amino}-piperidine-1-carboxylic acid ethyl ester], 0.407 nM corresponded to half-maximal inhibition (IC50).
In turn, `CCCCOc1ccc2c(c1-c1ncnc3c(C(=O)NC4CCCN(C(=O)COC)C4)c[nH]c13)OCO2` (stereo not shown) [Example 149, 4-(5-Butoxy-benzo[1,3]dioxol-4-yl)-5H-pyrrolo[3,2-d]pyrimidine-7-carboxylic acid [1-(2-methoxy-acetyl)piperidin-3-yl]-amide] showed an IC50 of 0.295 nM.
Take `CCCCOc1ccc2c(c1-c1ncnc3c(C(=O)N[C@@H]4CCN(C(=O)CC)C4)c[nH]c13)OCO2` [Example 150, 4-(5-Butoxy-benzo[1,3]dioxol-4-yl)-5H-pyrrolo[3,2-d]pyrimidine-7-carboxylic acid ((R)-1-propionyl-pyrrolidin-3-yl)-amide]: half-maximal inhibition (IC50) required 0.389 nM.
Under `CCCCOc1ccc2c(c1-c1ncnc3c(C(=O)N[C@@H]4CCN(C(=O)OCC)C4)c[nH]c13)OCO2` [Example 151, (R)-3-{[4-(5-Butoxy-benzo[1,3]dioxol-4-yl)-5H-pyrrolo[3,2-d]pyrimidine-7-carbonyl]amino}-pyrrolidine-1-carboxylic acid ethyl ester] stands 0.295 nM; under `COCCOc1cc(OC)ccc1-c1ncnc2c(C(=O)N[C@H]3CC[C@@H](NC(C)=O)CC3)c[nH]c12` [Example 152, cis-4-[4-Methoxy-2-(2-methoxy-ethoxy)-phenyl]-5H-pyrrolo[3,2-d]pyrimidine-7-carboxylic acid (4-acetylamino-cyclohexyl)-amide], 14.5 nM.
To `COCCOc1cc(OC)ccc1-c1ncnc2c(C(=O)N[C@H]3CC[C@@H](NC(=O)C4CC4)CC3)c[nH]c12` [Example 153, cis-4-[4-Methoxy-2-(2-methoxy-ethoxy)-phenyl]-5H-pyrrolo[3,2-d]pyrimidine-7-carboxylic acid [4-(cyclopropanecarbonyl-amino)cyclohexyl]-amide] belongs 6.17 nM; to `COCCOc1cc(OC)ccc1-c1ncnc2c(C(=O)N[C@H]3CC[C@@H](NC(=O)COC)CC3)c[nH]c12` [Example 154, cis-4-[4-Methoxy-2-(2-methoxy-ethoxy)-phenyl]-5H-pyrrolo[3,2-d]pyrimidine-7-carboxylic acid [4-(2-methoxy-acetylamino)-cyclohexyl]-amide], 17 nM; to `COCCOc1cc(OC)ccc1-c1ncnc2c(C(=O)N[C@H]3CC[C@H](NC(C)=O)CC3)c[nH]c12` [Example 155, trans-4-[4-Methoxy-2-(2-methoxy-ethoxy)-phenyl]-5H-pyrrolo[3,2-d]pyrimidine-7-carboxylic acid (4-acetylamino-cyclohexyl)-amide], 9.55 nM.
Under `COCCOc1cc(OC)ccc1-c1ncnc2c(C(=O)N[C@H]3CC[C@H](NC(=O)C4CC4)CC3)c[nH]c12` [Example 156, trans-4-[4-Methoxy-2-(2-methoxy-ethoxy)-phenyl]-5H-pyrrolo[3,2-d]pyrimidine-7-carboxylic acid [4-(cyclopropanecarbonyl-amino)cyclohexyl]-amide] stands 6.61 nM; under `COCCOc1cc(OC)ccc1-c1ncnc2c(C(=O)N[C@H]3CC[C@H](NC(=O)COC)CC3)c[nH]c12` [Example 157, trans-4-[4-Methoxy-2-(2-methoxy-ethoxy)-phenyl]-5H-pyrrolo[3,2-d]pyrimidine-7-carboxylic acid [4-(2-methoxy-acetylamino)-cyclohexyl]-amide], 15.5 nM.
With `COCCOc1cc(OC)ccc1-c1ncnc2c(C(=O)NC3CCN(C(C)=O)CC3)c[nH]c12` [Example 158, 4-[4-Methoxy-2-(2-methoxy-ethoxy)-phenyl]-5H-pyrrolo[3,2-d]pyrimidine-7-carboxylic acid (1-acetyl-piperidin-4-yl)-amide], half-maximal inhibition (IC50) required 24 nM.
In turn, `COCCOc1cc(OC)ccc1-c1ncnc2c(C(=O)NC3CCN(C(=O)C4CC4)CC3)c[nH]c12` [Example 159, 4-[4-Methoxy-2-(2-methoxy-ethoxy)-phenyl]-5H-pyrrolo[3,2-d]pyrimidine-7-carboxylic acid (1-cyclopropanecarbonyl-piperidin-4-yl)-amide] gave an IC50 of 6.03 nM.
`COCCOc1cc(OC)ccc1-c1ncnc2c(C(=O)NC3CCN(C(=O)COC)CC3)c[nH]c12` [Example 160, 4-[4-Methoxy-2-(2-methoxy-ethoxy)-phenyl]-5H-pyrrolo[3,2-d]pyrimidine-7-carboxylic acid [1-(2-methoxy-acetyl)-piperidin-4-yl]-amide] showed an IC50 of 23.4 nM.
To `COCCOc1ccc2c(c1-c1ncnc3c(C(=O)N[C@H]4CC[C@H](NC(C)=O)CC4)c[nH]c13)OCO2` [Example 161, trans-4-[5-(2-Methoxy-ethoxy)-benzo[1,3]dioxol-4-yl]-5H-pyrrolo[3,2-d]pyrimidine-7-carboxylic acid (4-acetylamino-cyclohexyl)-amide] belongs 5.25 nM.
To `COCCOc1ccc2c(c1-c1ncnc3c(C(=O)N[C@H]4CC[C@H](NC(=O)C5CC5)CC4)c[nH]c13)OCO2` [Example 162, trans-4-[5-(2-Methoxy-ethoxy)-benzo[1,3]dioxol-4-yl]-5H-pyrrolo[3,2-d]pyrimidine-7-carboxylic acid (4-(cyclopropanecarbonyl-amino)-cyclohexyl]-amide] belongs 11 nM.
To `COCCOc1ccc2c(c1-c1ncnc3c(C(=O)N[C@H]4CC[C@@H](NC(C)=O)CC4)c[nH]c13)OCO2` [Example 164, cis-4-[5-(2-Methoxy-ethoxy)-benzo[1,3]dioxol-4-yl]-5H-pyrrolo[3,2-d]pyrimidine-7-carboxylic acid (4-acetylamino-cyclohexyl)-amide] belongs 7.76 nM; to `COCCOc1ccc2c(c1-c1ncnc3c(C(=O)N[C@H]4CC[C@@H](NC(=O)C5CC5)CC4)c[nH]c13)OCO2` [Example 165, cis-4-[5-(2-Methoxy-ethoxy)-benzo[1,3]dioxol-4-yl]-5H-pyrrolo[3,2-d]pyrimidine-7-carboxylic acid [4-(cyclopropanecarbonyl-amino)-cyclohexyl]-amide], 5.89 nM.
